Data as given in PMC3893156 (Molecular Genetics & Genomic Medicine, 2013).
Positions count from the first letter of the chain named.

What was measured:
[1] = biological target: T1, Phosphomannomutase 2 (wt-PMM2) (Homo sapiens, UniProt O15305); test: thermal shift assay; type: binding
T1 sequence (O15305 1-246): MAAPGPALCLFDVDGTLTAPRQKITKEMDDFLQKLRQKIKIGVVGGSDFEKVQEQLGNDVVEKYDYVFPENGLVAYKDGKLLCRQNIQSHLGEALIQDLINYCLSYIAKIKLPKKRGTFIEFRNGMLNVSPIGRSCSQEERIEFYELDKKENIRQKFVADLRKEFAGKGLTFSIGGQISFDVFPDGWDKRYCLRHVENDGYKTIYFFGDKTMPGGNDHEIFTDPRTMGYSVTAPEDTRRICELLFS

[2] = biological target: T2, Phosphomannomutase 2 (F119L-PMM2) (Homo sapiens, UniProt O15305, F119L); test: activation of purified enzyme; type: biochemical
T2 sequence (O15305 1-246 F119L): T1 sequence (O15305 1-246) with F119L

[3] = biological target: T1, Phosphomannomutase 2 (wt-PMM2); test: activation of purified enzyme; type: biochemical
[4] = biological target: T1, Phosphomannomutase 2 (wt-PMM2); test: thermal shift, size exclusion chromatography; type: binding

**Q.** `O=P(O)(O)OC[C@H]1O[C@H](OP(=O)(O)O)[C@@H](O)[C@@H](O)[C@@H]1O` [Man-1,6-P2, mannose 1,6-bisphosphate] was tested. Which thermal shift assay [1] did it give?
**A.** The thermal shift assay was “Glc-1,6-P2 is slightly more effective than Man-1,6-P2 (Table S1)”.

**Q.** For `O=P(O)(O)OC[C@H]1O[C@H](OP(=O)(O)O)[C@H](O)[C@@H](O)[C@@H]1O` [Glc-1,6-P2, glucose-1,6-bisphosphate], which EC50 [2] is on record?
**A.** Its EC50 is 36 µM.

**Q.** And the EC50 [3]?
**A.** Its EC50 is 10 µM.

**Q.** With `O=P(O)(O)OC[C@H]1OC(O)[C@H](O)[C@@H](O)[C@@H]1O` (stereo partly drawn) [Glc-6-P, D-glucose 6-phosphate] as the compound, how does the “thermal shift, size exclusion chromatography (dimer stabilization)” value [4] read?
**A.** The value was “Glc-1-P and Glc-6-P produce a small, but statistically significant increase of the midpoint temperature”.
